Results as given in PubChem BioAssay AID328 (DTP/NCI, 2004).
Several values for one entry are separate records, joined by “and”; a condition that tells them apart may be missing. Equal entries are not always repeated. Toxic doses and inconclusive results are not listed. How the source made its calls: active means survival T/C of 150% or more; inactive means T/C below 125% in these data.

System: BDF1 mice, P388 leukemia ip, median survival T/C
Experiment: NCI In Vivo Anticancer Drug Screen. Data for tumor model P388 Leukemia (intraperitoneal) in B6D2F1 (BDF1) mice
Settings: endpoint: median survival time, higher = longer survival
Summary of the method: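 Compound-treated tumour-bearing mice were compared with vehicle-treated controls. Survival was recorded, and the value is the treated-group measurement divided by the control-group measurement (T/C).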

[1] = dose: 100.0 mg/kg/injection, schedule: Q01DX001 (ip), vehicle: saline with Tween-80
[2] = dose: 200.0 mg/kg/injection, schedule: Q01DX001 (ip), vehicle: saline with Tween-80
[3] = dose: 100.0 mg/kg/injection, schedule: Q01DX009 (ip), vehicle: saline with Tween-80
[4] = dose: 200.0 mg/kg/injection, schedule: Q01DX009 (ip), vehicle: saline with Tween-80
[5] = dose: 25.0 mg/kg/injection, schedule: Q01DX009 (ip), vehicle: saline with Tween-80
[6] = dose: 100.0 mg/kg/injection, schedule: Q04DX003 (ip), vehicle: saline with Tween-80
[7] = dose: 200.0 mg/kg/injection, schedule: Q04DX003 (ip), vehicle: saline with Tween-80
[8] = dose: 400.0 mg/kg/injection, schedule: Q04DX003 (ip), vehicle: saline with Tween-80
[9] = dose: 50.0 mg/kg/injection, schedule: Q01DX009 (ip), vehicle: saline with Tween-80

Measured: T/C

COc1ccc2c(c1)CCC1C2CCC2(C)C(=O)OC(=O)C12 (stereo not drawn)
inactive: dose: 87.5 mg/kg/injection, schedule: Q01DX009 (sc), vehicle: steriod suspending solution 91 % of control | dose: 100.0 mg/kg/injection, schedule: Q04DX003 (sc), vehicle: steriod suspending solution 100 % of control | dose: 175.0 mg/kg/injection, schedule: Q01DX009 (sc), vehicle: steriod suspending solution 100 % of control | dose: 200.0 mg/kg/injection, schedule: Q04DX003 (sc), vehicle: steriod suspending solution 109 % of control | dose: 350.0 mg/kg/injection, schedule: Q01DX009 (sc), vehicle: steriod suspending solution 95 % of control | dose: 400.0 mg/kg/injection, schedule: Q04DX003 (sc), vehicle: steriod suspending solution 95 % of control

O=C(Nc1ccccc1F)Nc1cccc2ccccc12
inactive: [1] 100 % of control | [2] 100 % of control | dose: 400.0 mg/kg/injection, schedule: Q01DX001 (ip), vehicle: saline with Tween-80 90 % of control

CCOC(=O)c1c(N)sc2c1CCCCC2
inactive: [3] 100 % of control | [4] 95 % of control | dose: 400.0 mg/kg/injection, schedule: Q01DX009 (ip), vehicle: saline with Tween-80 110 % of control

COc1ccc([C@@H]2c3cc4c(cc3C[C@H]3COC(=O)[C@@H]32)OCO4)cc1OC
inactive: dose: 6.25 mg/kg/injection, schedule: Q01DX009 (ip), vehicle: saline with Tween-80 104 % of control | dose: 12.5 mg/kg/injection, schedule: Q01DX009 (ip), vehicle: saline with Tween-80 116 % of control | [5] 121 % of control

O=C(O)C1(C(=O)O)CCC2(CCCCC2)CC1
inactive: dose: 3.12 mg/kg/injection, schedule: Q04DX003 (ip), vehicle: water 98 % of control | dose: 6.25 mg/kg/injection, schedule: Q01DX009 (ip), vehicle: water 110 % of control | dose: 6.25 mg/kg/injection, schedule: Q04DX003 (ip), vehicle: water 102 % of control | dose: 12.5 mg/kg/injection, schedule: Q01DX009 (ip), vehicle: water 94 % of control | dose: 12.5 mg/kg/injection, schedule: Q04DX003 (ip), vehicle: water 102 % of control | dose: 25.0 mg/kg/injection, schedule: Q01DX009 (ip), vehicle: water 103 % of control | dose: 25.0 mg/kg/injection, schedule: Q04DX003 (ip), vehicle: water 101 % of control and 116 % of control | dose: 50.0 mg/kg/injection, schedule: Q01DX009 (ip), vehicle: water 100 % of control | dose: 50.0 mg/kg/injection, schedule: Q04DX003 (ip), vehicle: water 101 % of control and 103 % of control | dose: 100.0 mg/kg/injection, schedule: Q04DX003 (ip), vehicle: water 90 % of control

O=C(CN1CCOCC1)Nc1cccc(C(F)(F)F)c1
inactive: [6] 86 % of control | [7] 86 % of control | [8] 109 % of control

OC(CC1CCCCN1)c1cc(C(F)(F)F)nc2c(C(F)(F)F)cccc12 (stereo not drawn)
inactive: [9] 111 % of control

CC(=O)Oc1cc([N+](=O)[O-])ccc1C(=O)O
inactive: [6] 104 % of control | [7] 108 % of control | [8] 100 % of control

O=C(NC(=O)c1c(F)cccc1F)Nc1nc2ccccc2s1
inactive: [5] 93 % of control | [3] 93 % of control

CCOC(=O)C(C#N)(CC)C1=CCCCC1 (stereo not drawn)
inactive: dose: 100.0 mg/kg/injection, schedule: Q01DX009 (ip), vehicle: Klucel (hydroxypropylcellulose) (HPC) 108 % of control | dose: 100.0 mg/kg/injection, schedule: Q04DX003 (ip), vehicle: Klucel (hydroxypropylcellulose) (HPC) 109 % of control | dose: 200.0 mg/kg/injection, schedule: Q01DX009 (ip), vehicle: Klucel (hydroxypropylcellulose) (HPC) 100 % of control | dose: 200.0 mg/kg/injection, schedule: Q04DX003 (ip), vehicle: Klucel (hydroxypropylcellulose) (HPC) 100 % of control | dose: 400.0 mg/kg/injection, schedule: Q01DX009 (ip), vehicle: Klucel (hydroxypropylcellulose) (HPC) 104 % of control | dose: 400.0 mg/kg/injection, schedule: Q04DX003 (ip), vehicle: Klucel (hydroxypropylcellulose) (HPC) 122 % of control

CCn1c2ccccc2c2cc(NC(=O)Nc3ccc([N+](=O)[O-])cc3C)ccc21
inactive: [9] 100 % of control | [3] 91 % of control | [4] 91 % of control

Cn1ncc(=O)c(Cl)c1S
inactive: dose: 50.0 mg/kg/injection, schedule: Q01DX005 (ip), vehicle: saline with Tween-80 97 % of control | dose: 100.0 mg/kg/injection, schedule: Q01DX005 (ip), vehicle: saline with Tween-80 93 % of control | dose: 200.0 mg/kg/injection, schedule: Q01DX005 (ip), vehicle: saline with Tween-80 99 % of control

CC(C)CC(C(N)=O)c1ccccc1 (stereo not drawn)
inactive: [1] 100 % of control | [2] 104 % of control
